Data set [1] in a line: Viscosity of PEG (Mw ~1,000,000) solution in Tris buffer with excipient (Examples 12-13). The format is physicochemical.
For data set [2] the following is noted: excipient 10 mg/mL.
Data set [3] deals with bovine gamma globulin (BGG). Kind of data set: Normalized viscosity of 280 mg/mL BGG in 50 mM histidine HCl with primary/secondary excipient combinations (Example 10). Type of data set: physicochemical. The protocol: The primary excipient compounds were selected from compounds having both anionic and aromatic functionality, as listed below in Table 5. The secondary excipient compounds were selected from compounds having either nonionic or cationic charge at pH 6 and either imidazoline or benzene rings, as listed below in Table 5. Formulations of these excipients were prepared in 50 mM histidine hydrochloride buffer solution for viscosity measurement in the following way. […] The individual primary or secondary excipient compounds were then dissolved in 50 mM histidine HCl.

The test system of data set [4] is bovine gamma globulin (BGG). Kind of data set: Normalized viscosity of 280 mg/mL BGG in 20 mM histidine with excipients A/B (Example 20). Type of data set: physicochemical. The conditions noted are these: no B. From the text: Excipient compounds for this Example are listed below in Table 11.
The nature of data set [5]: Caffeine solubility testing with co-solutes at ambient temperature (Examples 32-33). The conditions noted are these: for Observation of caffeine dissolution: caffeine 80 mg/mL; for Dissolution of caffeine enabled relative to reported solubility limit: co-solute in water, ambient temperature (about 23 C). As for the experimental part: Prepared solutions were used either neat or diluted with deionized water.
A small magnetic stir bar was added to the vial, and the solution was allowed to mix vigorously on a stir plate for about 10 minutes.

Data set [6] relates to bovine gamma globulin (BGG). Kind of data set: Viscosity of 280 mg/mL BGG formulations in 50 mM histidine HCl pH 6 with excipient, cone and plate viscometer (Examples 1, 2, 4-6). Type of data set: physicochemical.
The test system of data set [7] is bovine gamma globulin (BGG).
Data set [8] addresses T1, PEGylated BSA (1 PEG chain per BSA molecule) (Bos taurus, UniProt P02769).
T1 construct: purchased Aldrich A7906
Kind of data set: Viscosity of PEGylated BSA with 1 PEG chain per BSA with excipient, microVisc (Example 17). Type of data set: physicochemical. The conditions noted are these: excipient 20 mg/mL. The protocol: To a beaker was added 200 mL of a phosphate buffered saline (Aldrich Cat. #P4417) and 4 g of BSA (Aldrich Cat. #A7906) and mixed with a magnetic bar. Next 400 mg of methoxy polyethylene glycol maleimide, MW=5,000, (Aldrich Cat. #63187) was added. The reaction mixture was allowed to react overnight at room temperature. The following day, 20 drops of HCl 0.1 M were added to stop the reaction. […] The reaction mixture was placed in an Amicon centrifuge tube with a molecular weight cutoff (MWCO) of 30,000 and concentrated to a few milliliters. Next the sample was diluted 20 times with a histidine buffer, 50 mM at a pH of approximately 6, followed by concentrating until a high viscosity fluid was obtained.
The viscometer measurements were completed at ambient temperature.

Counter-ions that a name gives are not always drawn. Like-named read-outs stand apart in the source and are kept apart here. Residues, ends and D or L forms follow the SMILES beside them.

T1 sequence (P02769 25-607): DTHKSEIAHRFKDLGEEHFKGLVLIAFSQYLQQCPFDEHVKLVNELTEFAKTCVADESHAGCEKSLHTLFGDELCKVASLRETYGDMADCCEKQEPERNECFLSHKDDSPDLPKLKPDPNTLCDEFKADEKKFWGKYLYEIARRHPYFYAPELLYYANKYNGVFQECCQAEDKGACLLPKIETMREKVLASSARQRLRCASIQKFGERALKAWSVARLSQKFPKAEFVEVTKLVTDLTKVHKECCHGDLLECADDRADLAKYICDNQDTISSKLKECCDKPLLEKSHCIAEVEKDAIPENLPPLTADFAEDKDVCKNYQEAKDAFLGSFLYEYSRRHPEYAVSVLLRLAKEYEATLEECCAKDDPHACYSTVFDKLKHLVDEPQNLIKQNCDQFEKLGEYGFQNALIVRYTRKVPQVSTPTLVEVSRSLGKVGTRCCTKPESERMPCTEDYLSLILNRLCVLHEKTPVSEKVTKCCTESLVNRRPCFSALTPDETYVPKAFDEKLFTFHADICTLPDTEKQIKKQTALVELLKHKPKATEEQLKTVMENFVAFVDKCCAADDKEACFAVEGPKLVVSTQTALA

As to `O=C(O)CC(O)(CC(=O)O)C(=O)O`, the Viscosity in data set [1] (excipient 20 mg/mL) stood at 73.3 cP; in data set [1] (excipient 40 mg/mL), 56.8 cP; in data set [2], 74.9 cP. The “Viscosity Reduction” value is 28% in data set [1] (excipient 20 mg/mL), 44% in data set [1] (excipient 40 mg/mL) and 6.0% in data set [2].

On to `O=S(=O)(O)c1ccc(O)cc1` [4-hydroxybenzene sulfonic acid], for which the “Normalized Viscosity” value in data set [3] (primary excipient 31 mg/mL, no secondary) is 0.59.

`O=C(O)c1ccc(O)cc1` [4-hydroxybenzoic acid]: in data set [3] (primary excipient 30 mg/mL, no secondary), the “Normalized Viscosity” value is 0.61.

On to `CC1=CC(=O)NS(=O)(=O)O1` [Acesulfame K, acesulfame potassium], for which the “Normalized Viscosity” value worked out at 0.61 in data set [4] (excipient A 40 mg/mL) and 0.44 in data set [4] (excipient A 80 mg/mL). For the same molecule, the “Observation of caffeine dissolution” value in data set [5] (co-solute 80 mg/mL) is “DND”.

On to `COC(=O)[C@H](Cc1ccccc1)NC(=O)[C@@H](N)CC(=O)O` [Aspartame] (H-Asp-Phe-OMe), for which the “Normalized Viscosity” value in data set [4] (excipient A 10 mg/mL) is given as 0.83.

For the molecule `CN(C)C1CCCCC1` [DMCHA-HCl, dimethylcyclohexylamine], the Viscosity in data set [6] was found to be 35 cP; in data set [6] (excipient 28 mg/mL), 50 cP; in data set [6] (excipient 41 mg/mL), 43 cP; in data set [6] (excipient 50 mg/mL) it was 45 cP; in data set [6] (excipient 82 mg/mL), 36 cP; in data set [6] (excipient 164 mg/mL), 40 cP. Further, the “Viscosity Reduction” value was 56% in data set [6]; 37% in data set [6] (excipient 28 mg/mL); 46% in data set [6] (excipient 41 mg/mL); 43% in data set [6] (excipient 50 mg/mL); 54% in data set [6] (excipient 82 mg/mL); 49% in data set [6] (excipient 164 mg/mL). In data set [7] (excipient 120 mg/mL), the “Viscosity Reduction” value was determined as 56%.

Take `c1c[nH]cn1` [Imidazole]: the “Normalized Viscosity” value in data set [3] (no primary, secondary excipient 5 mg/mL) amounted to 0.75.

As to `NC(=O)c1cccnc1` [Niacinamide], in data set [6] (excipient 48 mg/mL), the Viscosity was determined as 39 cP and the “Viscosity Reduction” value is reported as 51%. The “Observation of caffeine dissolution” value in data set [5] (co-solute 30 mg/mL) is on record as “DND”. In addition, the “Viscosity Reduction” value in data set [7] (excipient 50 mg/mL) is 49%.

Consider `O=P([O-])([O-])[O-].[K+].[K+].[K+]` [Potassium phosphate, potassium phosphate tribasic], for which, in data set [2], the Viscosity was found to be 72.3 cP and the “Viscosity Reduction” value turned out to be 9.3%.

For `O=C1NS(=O)(=O)c2ccccc21.[Na]` [Saccharin, Na, saccharin sodium salt], the “Observation of caffeine dissolution” value in data set [5] (co-solute 45 mg/mL) was “DND”. For the same molecule, the “Dissolution of caffeine enabled relative to reported solubility limit” value in data set [5] was “at least about four times”.

Take `O=C1NS(=O)(=O)c2ccccc21` [Saccharin]: the “Normalized Viscosity” value in data set [4] (excipient A 30 mg/mL) is on record as 0.58; in data set [4] (excipient A 60 mg/mL), 0.51.

`O=S(=O)([O-])[O-].[Na+].[Na+]` [Sodium sulfate]: in data set [2], the Viscosity turned out to be 75.1 cP and the “Viscosity Reduction” value was determined as 5.8%.

Take `Cn1c(=O)c2[nH]cnc2n(C)c1=O` [Theophylline]: in data set [4] (excipient A 10 mg/mL), the “Normalized Viscosity” value was determined as 0.84.

As to `Cl.NCCc1ccc(O)cc1` [Tyramine HCl], the “Observation of caffeine dissolution” value in data set [5] (co-solute 30 mg/mL) is “DND”. Also, the “Dissolution of caffeine enabled relative to reported solubility limit” value in data set [5] was “at least about four times”. In addition, the “Viscosity Reduction” value in data set [7] (excipient 70 mg/mL) is 59%.

Alpha-Cyclodextrin sulfated Na salt: in data set [8], the Viscosity is listed as 151.5 cP and the “Viscosity Reduction” value is listed as 34%.

The record behind these values is patent US11357857B2, “Excipient compounds for protein processing” (COMERA LIFE SCIENCES, INC., priority 2014, dated 2022).
